These results are taken from article PMC3030623 (Journal of the American Chemical Society, 2010).

The target of this assay is T1, Sfp (Bacillus subtilis, UniProt P39135).
T1 sequence (P39135 1-224): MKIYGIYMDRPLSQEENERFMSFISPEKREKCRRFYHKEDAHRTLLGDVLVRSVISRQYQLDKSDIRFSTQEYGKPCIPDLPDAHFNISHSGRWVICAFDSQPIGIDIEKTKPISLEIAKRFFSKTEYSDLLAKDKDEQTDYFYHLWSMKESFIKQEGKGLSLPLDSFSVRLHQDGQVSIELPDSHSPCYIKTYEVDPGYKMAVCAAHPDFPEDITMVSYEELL
Kind of assay: ESI-MS of acyl-phosphopantetheine transfer to apo-ACPtcsA. The assay is classed as biochemical. The following applies: co-substrate apo-ACPtcsA (ACP domain of TcsA).

Take `CC/C=C/C(=O)SCCNC(=O)CCNC(=O)[C@H](O)C(C)(C)COP(=O)(O)OP(=O)(O)OC[C@H]1O[C@@H](n2cnc3c(N)ncnc32)[C@H](O)[C@@H]1OP(=O)(O)O` [compound 11, trans-2-pentenyl-CoA]: the “ESI-MS of acyl-phosphopantetheine transfer to apo-ACPtcsA” value is given as “we biochemically converted apo-ACPtcsA to trans-2-pentenyl-ACPtcsA”.
